Patent US20110166196A1, “TREATMENT AND PROPHYLAXIS OF EPILEPSY AND FEBRILE SEIZURES” (priority 2008, published 2011)

Assays:
TRPV1 receptors = biological target: T1, TRPV1 receptors (Rattus norvegicus, UniProt O35433); experiment: Capsaicin-evoked inward current (peak change in holding current) in hippocampal neurons; type: cell-based
T1 construct: inward currents were elicited in both CA3 and CA1 pyramidal cells; from tissue; host or cells: acute coronal hippocampal slices: CA1 and CA3 pyramidal cells and CA1 stratum radiatum interneurons
Experimental: (§1) Slices were continuously perfused with ACSF warmed to 28-32° C. at a flow rate of 1-2 ml/min. Picrotoxin (100 μM) and D-AP5 (50 μM) were added to block GABAA receptor- and NMDAR-mediated synaptic transmission. Whole-cell patch clamp recordings were made from interneurons identified visually in the CA1 stratum radiatum of the hippocampus. […] Patch pipettes were filled with internal recording solution containing in mM: 117 cesium gluconate, 2.8 NaCl, 5 MgCl2, 20 HEPES, 2 ATP-Na^+, 0.3 GTP-Na^+ and 0.6 EGTA. In some experiments 2 μM capsazepine, 140 nM baicalein, or 250 μM GDPβS were also included in the intracellular patch pipette solution. In experiments with BAPTA-containing patch electrodes, EGTA was omitted from the intracellular solution and 25 or 40 mM BAPTA replaced a corresponding amount of cesium gluconate. EPSCs were stimulated at 0.1 Hz (100 μsec) using a bipolar stainless steel stimulating electrode placed in stratum radiatum at least 200 μm from the recorded cell. CA1 interneurons were voltage clamped at −65 mV (not corrected for the liquid junction potential, of ˜10 mV), and EPSCs were evoked by paired pulses with an interval of 50 msec (stimulus intensity typically 50-400 μA). In early experiments, we measured rectification ratios of EPSCs evoked at +40 mV/−60 mV in the presence of 50 μM D-AP5, measured at the time of peak inward synaptic current seen at −70 mV (Lei and McBain, 2004).
The maximal initial slope of fEPSPs was calculated using a LabVIEW-based program (National Instruments). The peak amplitude of each EPSC was measured by comparing a 10 msec time period immediately prior to the stimulus with the peak of the EPSC using this program as well. Occasionally polysynaptic responses were evoked, and in these cases, only the initial monosynaptic event was measured. To positively identify LTD, EPSCs measured every 10 seconds were averaged in 1 minute intervals. EPSC amplitude values were normalized to control pre-HFS EPSC amplitude values (baseline period of at least 5 minutes prior to HFS) and subjected to analysis of variance (ANOVA) repeated measures analysis with a post-hoc Dunnett's test (GraphPad Prism, Version 4). […] EPSC amplitude values 15 to 20 minutes post-HFS were compared between control LTD experiments and those carried out either in transgenic TRPV1^−/− mice, or in the presence of drug using a t-test (unpaired, two-tailed, with Welch's correction if the variances between the groups were unequal). To calculate the effects of capsaicin, 12-(S)-HPETE or WIN 55,212-2 application on basal excitatory glutamatergic transmission, normalized EPSC amplitudes or fEPSP slopes were averaged in the final 5 minutes of drug application and compared with EPSCs/EPSPs 5 minutes prior to drug application. […] The n-values reported refer to the number of slices. All combined data are expressed as mean±the standard error of the mean (s.e.m.).

[1] = test system: excitatory synapses onto CA1 hippocampal interneurons; experiment: Drug-induced depression of EPSC amplitudes, whole-cell recording in hippocampal slices; type: cell-based, rat
Text: (§2) The basic methods have been detailed previously (McMahon and Kauer, 1997). Sprague-Dawley rats (15-22 days old) were used in the majority of experiments. In addition, we used TRPV1^−/− mice (Caterina et al., 2000) and wild-type C57BL/6 mice aged between 15 and 21 days (Jackson Laboratory). The TRPV1^−/− mice we used have been backcrossed at least 10 times onto a C57BL/6 background and were obtained from homozygous breeding pairs. Control mice were therefore not littermates but were age-matched, wild-type C57BL/6 animals received from the same supplier in the same shipment. All animal protocols were approved by the Brown University Institutional Animal Care and Use Committee. For mouse experiments, only one brain slice per mouse was used for each experiment, so that reported ‘n’ numbers represent the number of animals. Animals were anaesthetized using halothane or isoflurane and quickly decapitated. The brain was rapidly removed and 300 μm thick coronal slices prepared and stored for at least one hour submerged on a net in artificial cerebrospinal fluid (ACSF) containing in mM: 119 NaCl, 26 NaHCO3, 2.5 KCl, 1.0 NaH2PO4, 2.5 CaCl2, 1.3 MgSO4 and 11 dextrose, saturated with 95% O2/5% CO2 (pH 7.4). Slices were then transferred to a submerged recording chamber and bathed in oxygenated ACSF (28-32° C.) containing elevated divalent cations to reduce epileptiform activity (4 mM CaCl2 and 4 mM MgCl2, replacing MgSO4). A surgical cut was made between the CA3 and CA1 regions. The storage of slices submerged on a net rather than in an interface chamber on filter paper may be important in maintaining slice health and improving the likelihood of observing LTD.
as §1
The maximal initial slope of fEPSPs was calculated using a LabVIEW-based program (National Instruments). The peak amplitude of each EPSC was measured by comparing a 10 msec time period immediately prior to the stimulus with the peak of the EPSC using this program as well. Occasionally polysynaptic responses were evoked, and in these cases, only the initial monosynaptic event was measured. To positively identify LTD, EPSCs measured every 10 seconds were averaged in 1 minute intervals. EPSC amplitude values were normalized to control pre-HFS EPSC amplitude values (baseline period of at least 5 minutes prior to HFS) and subjected to analysis of variance (ANOVA) repeated measures analysis with a post-hoc Dunnett's test (GraphPad Prism, Version 4).

TRPV1 channels = biological target: T2, TRPV1 channels (Mus musculus, UniProt Q704Y3); experiment: TRPV1 agonist-evoked inward current and depolarization in CA1 pyramidal neurons; type: cell-based
T2 construct: whole-cell recordings from acutely prepared brain slices from wild type C57BL/6 mice; from tissue; host or cells: acute coronal hippocampal slices from P14-P20 wild-type C57BL/6 mice: CA1 pyramidal neurons

[2] = test system: excitatory synapses onto CA1 hippocampal interneurons; experiment: HFS-induced long-term depression (LTD) of EPSCs, whole-cell recording in hippocampal slices; type: cell-based, rat
Text: as §2, §1
High-frequency stimulation was used to induce LTD (HFS; two 1 sec trains at 100 Hz, inter-train interval 20 sec, at 1.5 times test current intensity) with the neuron held in current-clamp mode, so that the HFS trains were delivered with the membrane potential free to vary. Receptor antagonists were added directly to the ACSF at known concentrations for at least 10 minutes prior to HFS. Control experiments were interleaved with those experiments using receptor antagonists or involving slices from TRPVl^−/− mice. The cell input resistance and series resistance were monitored throughout each experiment; cells were discarded if these values changed by more than 10% during the experiment.

[3] = capsaicin 3 μM, capsazepine 10 μM, n=5

T1 sequence (O35433 whole entry): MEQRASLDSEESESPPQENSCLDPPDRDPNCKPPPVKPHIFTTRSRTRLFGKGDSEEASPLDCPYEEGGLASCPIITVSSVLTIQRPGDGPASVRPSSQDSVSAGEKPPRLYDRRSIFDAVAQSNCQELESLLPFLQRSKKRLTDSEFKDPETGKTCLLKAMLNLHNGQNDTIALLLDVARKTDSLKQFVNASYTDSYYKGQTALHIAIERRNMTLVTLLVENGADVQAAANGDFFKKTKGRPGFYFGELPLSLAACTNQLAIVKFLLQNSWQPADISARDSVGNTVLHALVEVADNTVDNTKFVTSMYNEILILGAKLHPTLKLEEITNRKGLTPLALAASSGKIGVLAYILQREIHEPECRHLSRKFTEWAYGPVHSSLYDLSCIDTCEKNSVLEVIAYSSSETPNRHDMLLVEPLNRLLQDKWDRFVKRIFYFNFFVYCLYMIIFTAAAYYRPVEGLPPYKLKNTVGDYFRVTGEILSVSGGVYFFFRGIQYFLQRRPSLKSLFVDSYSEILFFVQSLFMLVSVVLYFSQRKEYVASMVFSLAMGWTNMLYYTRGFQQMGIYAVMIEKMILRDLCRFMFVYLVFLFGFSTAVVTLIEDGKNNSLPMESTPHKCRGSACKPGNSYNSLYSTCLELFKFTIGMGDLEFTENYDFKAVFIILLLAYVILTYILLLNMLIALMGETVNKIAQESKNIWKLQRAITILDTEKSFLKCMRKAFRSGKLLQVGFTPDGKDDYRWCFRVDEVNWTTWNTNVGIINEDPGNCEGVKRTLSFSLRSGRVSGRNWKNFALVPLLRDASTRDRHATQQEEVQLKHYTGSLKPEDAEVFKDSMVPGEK
T2 sequence (Q704Y3 whole entry): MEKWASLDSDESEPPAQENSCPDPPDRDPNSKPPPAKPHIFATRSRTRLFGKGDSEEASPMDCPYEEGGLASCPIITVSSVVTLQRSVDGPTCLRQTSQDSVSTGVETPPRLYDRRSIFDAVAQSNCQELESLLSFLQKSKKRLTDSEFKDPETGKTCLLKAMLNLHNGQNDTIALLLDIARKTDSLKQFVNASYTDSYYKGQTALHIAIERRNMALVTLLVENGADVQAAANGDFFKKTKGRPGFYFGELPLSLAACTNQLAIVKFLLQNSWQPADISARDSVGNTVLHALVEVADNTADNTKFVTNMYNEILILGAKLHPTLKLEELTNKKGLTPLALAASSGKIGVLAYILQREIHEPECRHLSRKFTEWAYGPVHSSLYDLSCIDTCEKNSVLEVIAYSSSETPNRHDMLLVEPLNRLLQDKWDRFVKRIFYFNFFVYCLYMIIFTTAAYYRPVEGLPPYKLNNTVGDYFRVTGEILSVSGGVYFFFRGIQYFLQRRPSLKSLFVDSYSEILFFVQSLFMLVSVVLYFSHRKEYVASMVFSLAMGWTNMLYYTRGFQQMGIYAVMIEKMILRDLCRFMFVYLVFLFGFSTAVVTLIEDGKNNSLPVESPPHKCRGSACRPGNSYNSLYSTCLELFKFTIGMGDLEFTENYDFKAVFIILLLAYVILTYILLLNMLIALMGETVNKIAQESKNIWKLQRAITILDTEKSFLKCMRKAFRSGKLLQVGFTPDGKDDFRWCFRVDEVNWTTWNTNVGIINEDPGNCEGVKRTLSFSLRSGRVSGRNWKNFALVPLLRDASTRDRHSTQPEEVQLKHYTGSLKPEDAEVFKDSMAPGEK

Row | 1 μM capsaicin response in interneurons (TRPV1 receptors; 1 μM capsaicin, P=0.78 vs pre-drug, n=5) | peak capsaicin response in CA3 pyramidal cells (inward current) (TRPV1 receptors; 3 μM capsaicin bath application, n=5) | peak capsaicin response in CA1 pyramidal cells (inward current) (TRPV1 receptors; 3 μM capsaicin bath application, n=7) | peak capsaicin response in interneurons (inward current) (TRPV1 receptors; 3 μM capsaicin, CA1 stratum radiatum interneurons, n=5) | capsaicin-evoked current in a CA1 neuron (TRPV1 channels; capsaicin 3 μM bath-applied) | effect on membrane potential of CA1 pyramidal neurons (TRPV1 channels; capsaicin 3 μM bath-applied, current-clamp) | Peak capsaicin response in the presence of capsazepine in CA1 interneurons (TRPV1 receptors; capsaicin 3 μM, capsazepine 10 μM, P=0.06, n=5) | Peak capsaicin response in the presence of capsazepine in CA1 pyramidal cells (TRPV1 receptors; [3]) | Peak capsaicin response in the presence of capsazepine in CA3 pyramidal cells (TRPV1 receptors; [3]) | effect on capsaicin-induced depolarization of CA1 pyramidal neurons (TRPV1 channels; 2 μM intracellular capsazepine, capsaicin 3 μM, p<0.001) | capsaicin-evoked current in the presence of capsazepine (TRPV1 channels; capsaicin 3 μM plus capsazepine 10 μM) | effect on 12-(S)-HPETE-evoked inward current (TRPV1 channels; capsazepine 10 μM, 12-(S)-HPETE 100 nM) | Compound | EPSC amplitudes after 10-15 minutes in capsaicin ([1]; capsaicin 1 μM bath-applied, n=14) | EPSC amplitudes 15-20 minutes post-HFS ([2]; HFS after capsaicin 1 μM exposure (occlusion), n=10) | EPSC amplitudes after 10-15 minutes in 1 μM capsaicin and in the presence of intracellular capsazepine ([1]; capsazepine 2 μM in patch pipette, capsaicin 1 μM bath, n=6) | EPSC amplitudes after 10-15 minutes in 12-(S)-HPETE and in the presence of capsazepine ([1]; capsazepine 10 μM, 12-(S)-HPETE 100 nM, n=6) | EPSC amplitudes 10-15 minutes after adding capsazepine ([2]; 10 μM capsazepine added 10 minutes after HFS (LTD maintenance), n=6) | EPSC amplitudes 15-20 minutes post-HFS with intracellular capsazepine ([2]; capsazepine 2 μM in patch pipette, P=0.20 vs control LTD, n=7) | EPSC amplitudes 15-20 minutes post-HFS in capsazepine ([2]; capsazepine 10 μM bath applied prior to HFS, n=9)
1 | 0.7±0.3 pA | 180.1±48.0 pA | 160.1±55.3 pA | 41.6±16.2 pA | induces inward current | significantly depolarized | – | – | – | – | – | – | COc1cc(CNC(=O)CCCCC=CC(C)C)ccc1O [capsaicin, 8-methyl-N-vanillyl-6-nonenamide] | 73.3±4.6 % of pre-drug control values | 112.5±21.9 % of control values in capsaicin before HFS | – | – | – | – | –
2 | – | – | – | – | – | – | 0.4±0.2 pA | 0.1±0.1 pA | 0.1±0.1 pA | prevented | does not induce current | blocked | Oc1cc2c(cc1O)CN(C(=S)NCCc1ccc(Cl)cc1)CCC2 [capsazepine] | – | – | 46.8±10.3 % of pre-capsaicin control values | 103.0±8.9 % of pre-12-(S)-HPETE control values | 50.1±6.1 % of pre-HFS values | 47.5±10.3 % of control values before HFS | 105.6±8.6 % of control values before HFS
